Source: patent US8575091B1, “Amylin analogues and pharmaceutical compositions thereof” (Novo Nordisk A/S, priority 2012, dated 2013)
Numbered stars: 1 amine (or outer) side, 2 acyl side, 3 side chain; on linkers, the order of the positions; unused ones are H or OH. Bridge positions count the residues as written; N and C are the ends. Side chains are listed from the residue outwards. Peptide text beside a SMILES is read from it. * marks the point of attachment. C20 diacid = O=C(O)CCCCCCCCCCCCCCCCCCC(=O)*; γGlu = O=C(O)[C@H](CCC(=O)[*:2])N[*:1]; AEEA = NCCOCCOCC(=O)O

Tests used:
[1] = biological target: T1, human calcitonin receptor (Homo sapiens, UniProt P30988); test: Assay (II)a functional assay, human calcitonin receptor (CRE luciferase, BHK cells);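 further: luminescence from a CRE-driven luciferase reporter, read by single photon counting after cells were exposed to test samples for 3 h at 37 °C under 5% CO2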; format: cell-based; conditions: read-out: hCTR funct. EC50
T1 construct: expressed in transfected cells
T1 sequence (P30988 25-474): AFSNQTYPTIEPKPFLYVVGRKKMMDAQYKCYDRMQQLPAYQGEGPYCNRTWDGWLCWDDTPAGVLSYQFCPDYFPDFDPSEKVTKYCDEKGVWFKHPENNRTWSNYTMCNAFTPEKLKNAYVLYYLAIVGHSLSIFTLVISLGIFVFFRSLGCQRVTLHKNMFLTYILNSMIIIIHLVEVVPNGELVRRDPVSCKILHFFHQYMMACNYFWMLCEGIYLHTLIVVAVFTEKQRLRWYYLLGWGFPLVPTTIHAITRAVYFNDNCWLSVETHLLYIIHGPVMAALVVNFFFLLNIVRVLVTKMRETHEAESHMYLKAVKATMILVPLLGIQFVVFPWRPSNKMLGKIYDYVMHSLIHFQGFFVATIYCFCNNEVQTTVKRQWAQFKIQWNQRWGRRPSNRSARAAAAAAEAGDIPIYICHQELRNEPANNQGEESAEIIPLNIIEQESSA
Procedure: Assay (II)—Functional Assays
Consequently, transcription is activated by promoters containing multiple copies of the cAMP response element (CRE).
The cell line was further transfected with RAMP-3, using standard methods.
After incubation overnight at 37° C. and 5% CO2, the growth medium was replaced by 50 μl/well assay medium (DMEM (without phenol red), Glutamax™, 10% FBS, and 10 mM Hepes, pH 7.4). Further, 50 μl/well of standard or sample in assay buffer were added. After 3 hours incubation at 37° C. and 5% CO2, the assay medium with standard or sample were removed and replaced by 100 μl/well PBS. Further, 100 μl/well LucLite™ was added. The plates were sealed and incubated at room temperature for 30 minutes. Finally, luminescence was measured on a TopCounter (Packard) in SPC (single photon counting) mode.

[2] = biological target: T2, human amylin receptor (amylin 3(a) receptor: human calcitonin receptor + RAMP-3) (Homo sapiens, UniProt O60896+P30988); test: Assay (II)a functional assay, human amylin receptor (CRE luciferase, BHK cells); format: cell-based; conditions: for EC50: functional assay, human amylin receptor, read-out: hAmylin-R funct. EC50
T2 construct: expressed in transfected cells
T2 sequence (P30988 25-474): T1 sequence (P30988 25-474)
T2 sequence (O60896 24-148 partner): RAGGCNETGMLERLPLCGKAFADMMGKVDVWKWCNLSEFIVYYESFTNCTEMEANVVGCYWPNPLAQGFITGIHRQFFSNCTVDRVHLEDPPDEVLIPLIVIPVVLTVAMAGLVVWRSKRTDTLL

[3] = biological target: T1, human calcitonin receptor; test: Assay (VII) binding to the human calcitonin receptor (SPA, 125I-Calcitonin); conditions: read-out: hCTR bind IC50;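 further: cell membranes coupled to SPA beads, competitive displacement read by scintillation counting, IC50 derived from a one-site competition fit as a measure of receptor affinity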
[4] = biological target: T3, human amylin receptor (Homo sapiens, UniProt O60896+P30988); test: Assay (V) binding to the human amylin receptor (SPA, 125I-rat amylin); conditions: human amylin receptor membranes, SPA; read-out: hAmylin-R bind IC50
T3 construct: expressed in transfected cells
T3 sequence (P30988 25-474): T1 sequence (P30988 25-474)
T3 sequence (O60896 24-148 partner): T2 sequence (O60896 24-148 partner)
How it was run: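 IC50, taken as receptor affinity, came from one-site binding competition analysis of scintillation proximity counts. Amylin 3(a)/CRE-luc cell membranes (35 ng/μL final) were mixed with SPA beads (0.05 mg/well) in 50 mM Hepes pH 7.4 containing CaCl2, MgCl2, 0.1% OA and 0.02% Tween20.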

| SMILES | EC50 [1] [nM] | EC50 [2] [nM] | IC50 [3] [nM] | IC50 [4] [nM] | Ratio hCT/hAmylin funct. ([2]; Table 6, human functional selectivity (hCTR EC50 / hAmylin-R EC50)) | Ratio hCT/hAmylin funct. ([2]; Table 6a, human functional selectivity (hCTR EC50 / hAmylin-R EC50), at least 5) | Ratio hCT/hAmylin funct. ([2]; Table 6j, hCTR funct. EC50 / hAmylin-R funct. EC50) | Ratio hCT/hAmylin funct. ([2]; Table 6k, hCTR funct. EC50 / hAmylin-R funct. EC50) |
| --- | --- | --- | --- | --- | --- | --- | --- | --- |
| CC[C@H](C)[C@H](NC(=O)[C@H](C)NC(=O)CNC(=O)[C@H](Cc1ccccc1)NC(=O)[C@H](CC(N)=O)NC(=O)[C@@H]1CCCN1C(=O)[C@H](CO)NC(=O)[C@H](CO)NC(=O)[C@H](Cc1c[nH]cn1)NC(=O)[C@H](CCCNC(=N)N)NC(=O)[C@H](CC(C)C)NC(=O)[C@H](Cc1ccccc1)NC(=O)[C@@H](CC(=O)O)NC(=O)[C@H](C)NC(=O)[C@H](CC(C)C)NC(=O)[C@H](CCCNC(=N)N)NC(=O)[C@H](CCC(N)=O)NC(=O)[C@@H](NC(=O)[C@H](C)NC(=O)[C@@H]1CSSC[C@H](NC(=O)[C@@H](N)CCCCNC(=O)CC[C@H](NC(=O)CC[C@H](NC(=O)CCCCCCCCCCCCCCCCCCC(=O)O)C(=O)O)C(=O)O)C(=O)N[C@@H](CC(N)=O)C(=O)N[C@@H]([C@@H](C)O)C(=O)N[C@@H](C)C(=O)N[C@@H]([C@@H](C)O)C(=O)N1)[C@@H](C)O)C(=O)N1CCC[C@H]1C(=O)N[C@@H](CO)C(=O)N[C@@H](CO)C(=O)N[C@H](C(=O)N[C@@H](CC(N)=O)C(=O)N[C@H](C(=O)NCC(=O)N[C@@H](CO)C(=O)N[C@@H](CCCNC(=N)N)C(=O)N[C@H](C(=O)N[C@@H](Cc1ccc(O)cc1)C(N)=O)[C@@H](C)O)C(C)C)[C@@H](C)O [Example 131] | 100 | 0.383 | 112 | 0.365 | – | – | – | – |
| CC[C@H](C)[C@H](NC(=O)[C@H](C)NC(=O)CNC(=O)[C@H](Cc1ccccc1)NC(=O)[C@H](CC(N)=O)NC(=O)[C@@H]1CCCN1C(=O)[C@H](CO)NC(=O)[C@H](CO)NC(=O)[C@H](Cc1c[nH]cn1)NC(=O)[C@H](CCCNC(=N)N)NC(=O)[C@H](CC(C)C)NC(=O)[C@H](Cc1ccccc1)NC(=O)[C@H](CC(N)=O)NC(=O)[C@H](C)NC(=O)[C@H](CC(C)C)NC(=O)[C@H](CCCNC(=N)N)NC(=O)[C@H](CCC(N)=O)NC(=O)[C@@H](NC(=O)[C@H](C)NC(=O)[C@@H]1CSSC[C@H](NC(=O)[C@H](CCCNC(=N)N)NC(=O)[C@@H](N)CCCCNC(=O)COCCOCCNC(=O)CC[C@H](NC(=O)CCCCCCCCCCCCCCCCCCC(=O)O)C(=O)O)C(=O)N[C@@H](CC(N)=O)C(=O)N[C@@H]([C@@H](C)O)C(=O)N[C@@H](C)C(=O)N[C@@H]([C@@H](C)O)C(=O)N1)[C@@H](C)O)C(=O)N1CCC[C@H]1C(=O)N[C@@H](CO)C(=O)N[C@@H](CO)C(=O)N[C@H](C(=O)N[C@@H](CC(N)=O)C(=O)N[C@H](C(=O)NCC(=O)N[C@@H](CO)C(=O)N[C@@H](Cc1c[nH]cn1)C(=O)N[C@H](C(=O)N[C@@H](Cc1ccc(O)cc1)C(N)=O)[C@@H](C)O)C(C)C)[C@@H](C)O [Example 45] (H-K([AEEA-γGlu-C20 diacid])RCNTATCATQRLANFLRHSSPNFGAIPSSTNVGSHTY-NH2; disulfide 3-8) | 10.1 | 0.594 | 14.8 | 0.552 | 17.0 | 17.0 | 17.0 | 17.0 |
| CC[C@H](C)[C@H](NC(=O)[C@H](C)NC(=O)CNC(=O)[C@H](Cc1ccccc1)NC(=O)[C@H](CC(N)=O)NC(=O)[C@@H]1CCCN1C(=O)[C@H](CO)NC(=O)[C@H](CO)NC(=O)[C@H](Cc1c[nH]cn1)NC(=O)[C@H](CCCNC(=N)N)NC(=O)[C@H](CC(C)C)NC(=O)[C@H](Cc1ccccc1)NC(=O)[C@H](CC(N)=O)NC(=O)[C@H](C)NC(=O)[C@H](CC(C)C)NC(=O)[C@H](CCCNC(=N)N)NC(=O)[C@H](CCC(N)=O)NC(=O)[C@@H](NC(=O)[C@H](C)NC(=O)[C@@H]1CSSC[C@H](NC(=O)[C@@H](N)CCCCNC(=O)COCCOCCNC(=O)CC[C@H](NC(=O)CCCCCCCCCCCCCCCCCCC(=O)O)C(=O)O)C(=O)N[C@@H](CC(N)=O)C(=O)N[C@@H]([C@@H](C)O)C(=O)N[C@@H](C)C(=O)N[C@@H]([C@@H](C)O)C(=O)N1)[C@@H](C)O)C(=O)N1CCC[C@H]1C(=O)N[C@@H](CO)C(=O)N[C@@H](CO)C(=O)N[C@H](C(=O)N1CCC[C@H]1C(=O)N[C@H](C(=O)NCC(=O)N[C@@H](CO)C(=O)N[C@@H](CC(N)=O)C(=O)N[C@H](C(=O)N[C@@H](Cc1ccc(O)cc1)C(N)=O)[C@@H](C)O)C(C)C)[C@@H](C)O [Example 49] | 2.39 | 0.106 | 12.9 | 1.19 | – | – | – | – |
